In US20260125411A1, “COMPOUND EMITTING LIGHT UNDER SPECIFIC CONDITIONS, AND METHOD FOR DETECTING CANCER STEM CELLS USING SAME” (Kyoto University, priority 2022, published 2026) one finds emission in cells data, which are given here for 1 molecule.

The test system of one test is SUIT-2 cells. The test can be described thus: Observation with confocal microscope, SUIT-2. As to conditions: SUIT-2, FDG 20 μM, ex 488 nm, detection 500-600 nm. The format is cell-based, human. On the procedure: (§1) Fluorescence imaging was performed using a confocal microscope LSM710 (Carl Zeiss AG). The excitation light used was at 488 nm (detection wavelength: 500-600 nm) and 633 nm (detection wavelength: 647-759 nm).
(§2) The cells were seeded in a 35 mm micro-Dish (μ-Dish 35 mm, high, ibidi, Germany) and cultured for 24 hours, followed by washing with DMEM (for SUIT-2 cells, NIH3T3 cells, HUVEC cells) or RPMI-1640 (for KATO-3 cells) containing no phenol red and no FBS. A dye and Aldefluor™ (StemCell Technologies, Inc., Canada) or FDG (Sigma-Aldrich, USA) were dissolved in DMSO and diluted in the medium. The cells were treated with 2 mL of the medium containing the dye and Aldefluor™ or FDG and cultured in air containing 5% CO2 at 37° C. for one hour, followed by observation with the confocal microscope. The number of cells seeded was 10×10^5 for KATO-3 cells, and 8×10^5 for the other cell types. The final concentrations of CHO_βgal, Aldefluor™, and FDG were 20 μM, 1 μM, and 20 μM, respectively. The DMSO content was 2%. FIG. 4 and FIG. 5 show the measurement results.

Another test has as its system KATO-III cells. As to the kind of experiment: Observation with confocal microscope, KATO-III. The format is cell-based, human. As to conditions: FDG 20 μM, ex 488 nm, detection 500-600 nm. On the procedure: as §1, §2

Turning to `O=C1OC2(c3ccc(O[C@@H]4O[C@H](CO)[C@H](O)[C@H](O)[C@H]4O)cc3Oc3cc(O[C@@H]4O[C@H](CO)[C@H](O)[C@H](O)[C@H]4O)ccc32)c2ccccc21` [FDG, fluorescein di-β-D-galactopyranoside], the emission in cells entry in the test with SUIT-2 cells and with KATO-III cells was “emission was observed throughout the cells” in each case.
